Source: EP0441832B1, “COMPOSITION AND TREATMENT WITH BIOLOGICALLY ACTIVE PEPTIDES AND CERTAIN ANIONS” (THE CHILDREN'S HOSPITAL OF PHILADELPHIA, priority 1988, dated 1990)
Read-outs that look alike come from different tables or passages of the source. Ends that are not written are not given here.

Assays:
Type in all cases: cell-based
ENTEROBACTER CLOACAE = test system: ENTEROBACTER CLOACAE
Method: (§1) Approximately 1,000 bacteria were seeded into about 200 ul of trypticase soy broth. Either magainin 2 carboxy terminal amide, PGLa, or ALSKALSK ALSKALSKALSKALSK (Z-44) were added in increasing concentrations in the absence (Panel A) or presence (Panel B) of 50 mM NaF.

PSEUDOMONAS AERUGINOSA = details: Panel A: Absence of NaF; approx. 1,000 bacteria in about 200 ul trypticase soy broth
Method: as §1

E. cloacae = test: Killing of bacteria: 15 min incubation in trypticase soy broth, then plating for viable organisms
Method: If 10⁷ E. cloacae organisms are inoculated into 1 ml of TSB in the presence of 60 ug/ml of MGN2, about 10⁶ bacteria are found to be viable on plating. […] The effective killing power of this antibiotic at a given concentration has been potentiated over 1 million-fold by the addition of fluoride.
LEGEND: Organisms were incubated in a volume of 1 ml in either trypticase soy broth alone or containing substances noted for 15 min at 37 °C. An aliquot was then diluted and plated to determine number of viable organisms.

[1] = peptide 60ug/ml + NaF 25 mM, 10⁷ organisms in 1 ml TSB, 15 min at 37 C

Substance | MINIMAL INHIBITORY CONCENTRATION (ENTEROBACTER CLOACAE) | MINIMAL INHIBITORY CONCENTRATION (ENTEROBACTER CLOACAE; Panel A: Absence of NaF, approx. 1,000 bacteria in about 200 ul trypticase soy broth, listed as MGN2 (Magainin II)) | MINIMAL INHIBITORY CONCENTRATION (PSEUDOMONAS AERUGINOSA) | bacteria viable on plating (E. cloacae; 60 ug/ml peptide + 50 mM NaF, 10⁷ organisms in 1 ml TSB) | potentiation of effective killing power by the addition of fluoride (E. cloacae; 60 ug/ml peptide, with vs without NaF) | CFU (E. cloacae; [1]) | EOP (% viable) (E. cloacae; [1]) | EOP (% viable) (E. cloacae; peptide 60ug/ml alone, 10⁷ organisms in 1 ml TSB, 15 min at 37 C) | EOP (% viable) (E. cloacae; NaF 25mM alone, 10⁷ organisms in 1 ml TSB, 15 min at 37 C)
GIGKFLHSAKKFGKAFVGEIMNS-NH2 [MGN2] | exceeded 500 ug/ml | MGN2 (Magainin II) >500 ug/ml | MGN 2 250-500 ug/ml | all bacteria are killed | over 1 million | 0 | 0% | 90% | 
sodium fluoride [NaF] |  |  |  |  |  |  |  |  | 100%
